Read-outs that look alike come from different tables or passages of the source.
Key:
[1] = format: physicochemical; design: key to Fibril / Fibril Formation / TEM 2cat / Fibril: 1 = fibrils present; 0 non-fibrillar structures; settings: for Fibril / Fibril Formation: 1 mg/mL, uranyl acetate stain, qualitative
[2] = system: HIV-1 infection of TZM-bl cells; experiment: HIV-1 infectivity enhancement assay, β-galactosidase luminescence; format: cell-based; settings: for Rel-EFC: infection relative to EF-C (QCKIKQIINMWQ = 1); for Log10 Infection Rel EFC: log10 of infection relative to EF-C; for Rel-to EFC (Feb-2021): n-fold infectivity relative to EF-C; for Log Infectivity: Log10 infection relative to EF-C, TZM-bl cells; for Log10 Infection Rel EF-C: HIV-1 infection of TZM-bl cells; for Abs. Inf.: absolute infection signal, HIV-1 on TZM-bl cells, β-galactosidase luminescence
[3] = Turbidity, derived count rate of scattered light; format: physicochemical; settings: for Log Count Rate: log of derived count rate; for Count Rate / kcps: derived count rate of scattered light at 633 nm, 173°, from zeta-potential measurement, 0.1 mg/mL in 1 mM KCl after 1 d at 1 mg/mL in PBS, turbidity / microscopic aggregation, mean of triplicate
Summary of the method: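 One-day room-temperature aggregation at 1 mg/mL in PBS (pH 7.4) preceded measurement; samples then went into 1 mM KCl. Triplicates per sample, two independent experiments averaged.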

[4] = TEM, 1 = fibrils present, 0 = non-fibrillar
[5] = TEM, 1 = fibrils present, 0 = non-fibrillar structures
[6] = category: fibrils present or non-fibrillar
[7] = Fig. S7 panel A (plotted against β-sheet content), asymmetric std dev errors
[8] = Fig. S7 panel B (plotted against CR), rounded to two decimals, asymmetric std dev errors
[9] = Log10 of infection rate relative to EF-C, Figure 3A source data
[10] = infection rate relative to EF-C, log10, data of Figure 2D
[11] = infection rate relative to EF-C, log10, source data of Figure 2C
[12] = Log10 of infection relative to EF-C, all peptides of FigS16
[13] = log10 of HIV-1 infection of TZM-bl cells relative to EF-C (EF-C = 0)
[14] = Log10 of derived count rate of scattered light (turbidity)
[15] = turbidity, Log10 of derived count rate of scattered light, Figure 3A source data
[16] = turbidity, log10 of derived count rate of scattered light

QCKIKQIINMWQ [reference compound]
TEM 2cat ([1]; Fig S10 panel D): 1 | Fibril ([1]; Fig S10 panel E): 1 | TEM: 1= fibrils, 0= aggregates (micelle), 0.5 = aggregates and fibrils, -1 = nothing obersved, STD prep ([1]; STD prep): 0.5 | Fibril / Fibril Formation ([1]; TEM): 1 | Fibril [1, 4]: 1 | Fibril [1, 5]: 1 | TEM 2cat [1, 6]: 1 | Rel-EFC ([2]; 1.3 µM peptide): 1 | n-fold infectivity enhancement compared to virus-only infectivity ([2]; 1.3 µM peptide, listed as EF-C): 42 ± 7 | Log10 Infection Rel EFC ([2]; 1.3 µM peptide): 0 | Absolute Infectivity / RLU /s (Feb2021) ([2]; Feb2021, figures match the 1.3 µM column): 21312.22222 RLU /s | n-fold to virus (Feb2021) ([2]; Feb2021, infectivity relative to virus only): 42.02 | Rel-to EFC (Feb-2021) ([2]; Feb2021): 1 | n-fold to virus (Feb2021) ([2]; Feb2021 run, infectivity n-fold relative to virus alone): 42.02 | Log10 of Rel to EFC (Feb2021) ([2]; Feb2021 run, log10 of infectivity relative to EF-C): 0 | Rel-to EFC (Feb-2021) ([2]; Feb2021 run): 1 | Rel-to EFC ([2]; Fig S8 panels B, D, infectivity enhancement relative to EF-C): 1 | n-fold to virus ([2]; Fig S8 panels B, D, infectivity n-fold relative to virus alone): 42.02 | Log Infectivity [2, 7]: 0 | Log Infectivity [2, 8]: 0 | Log10 Infection Rel EF-C [2, 9]: 0 | Log10 Infection Rel EF-C [2, 10]: 0 | Log10 Infection Rel EF-C [2, 11]: 0 | Log10 of Rel to EFC (Feb2021) [2, 12]: 0 | Abs. Inf. [2]: 21312.22222 | infectivity ([2]; infectivity class (low / medium / high) of the peptide in the sequence-pattern analysis, Fig. S22-A4, class limits not given): high | Log10 Inf. rel. to EF-C [2, 13]: 0 | Log10 Inf. rel. to EF-C ([2]; log10 of HIV-1 infection of TZM-bl cells relative to EF-C, Fig S15 source data, asymmetric std dev errors): 0 | Abs Infection at 0.26µM ([2]; peptide 0.26 µM, mean of n = 3, Figure 7A): 39053.33333 | Abs Infection at 1.3 µM ([2]; peptide 1.3 µM, mean of n = 3, Figure 7A): 101036.6667 | Abs Infection at 6.5 µM ([2]; peptide 6.5 µM, mean of n = 3, Figure 7A): 141063.3333 | Log Count Rate ([3]; Fig S8 panels A, C, asymmetric log errors): 3.415 | Log Count Rate ([3]; Fig S8 panels B, D): 3.415 | Count Rate ([3]; Fig S8 panels B, D, turbidity, derived count rate of scattered light): 2602.27 | Log10 Count Rate [3, 14]: 3.415 | Zeta Count Rate Category ([3]; category 1 / 0, no key given): 1 | Zeta Count Rate Category ([3]; category 1 or 0 from count rate, key not given): 1 | Zeta Count Rate / kcps ([3]; derived count rate of scattered light): 2602 kcps | Count Rate / kcps [3]: 2606 kcps | Zeta Count Rate / kcps ([3]; derived count rate of scattered light, mean, std deviation in next column): 2602 kcps | Zeta Count Rate / kcps ([3]; derived count rate of scattered light, mean, std deviation in separate column): 2602 kcps | Log10 Count Rate ([3]; logarithm of count rate in kcps): 3.415 | Log10 Count Rate [3, 15]: 3.415 | Log10 Count Rate [3, 16]: 3.415

KIKIQINM
TEM 2cat ([1]; Fig S10 panel D): 1 | Fibril ([1]; Fig S10 panel E): 1 | Fibril / Fibril Formation ([1]; TEM): 1 | Fibril [1, 4]: 1 | Fibril [1, 5]: 1 | TEM 2cat [1, 6]: 1 | Rel-EFC ([2]; 1.3 µM peptide): 0,36 | Log10 Infection Rel EFC ([2]; 1.3 µM peptide): -0,44 | Log Infectivity [2, 7]: -0.4404 | Log Infectivity [2, 8]: -0.44 | Log10 Infection Rel EF-C [2, 9]: -0.44 | Log10 Infection Rel EF-C [2, 10]: -0.4404 | Log10 Infection Rel EF-C [2, 11]: -0.4404 | Log10 of Rel to EFC (Feb2021) [2, 12]: -0.44 | Log10 Inf. rel. to EF-C [2, 13]: -0.4404 | Log10 Count Rate [3, 14]: 2.418 | Count Rate / kcps [3]: 262 kcps | Log10 Count Rate [3, 15]: 2.418 | Log10 Count Rate [3, 16]: 2.418

KIRGKFEKED
TEM 2cat ([1]; Fig S10 panel D): 0 | TEM 2cat ([1]; FigS12 panel A, fibril category by TEM): 0 | Fibril ([1]; FigS12 panel B, TEM): 0 | Fibril / Fibril Formation ([1]; TEM): 0 | Fibril [1, 4]: 0 | Fibril [1, 5]: 0 | Rel-EFC ([2]; 1.3 µM peptide): 0,06 | Log10 Infection Rel EFC ([2]; 1.3 µM peptide): -1,24 | Log Infectivity [2, 7]: -1.2355 | Log10 Infection Rel EF-C [2, 9]: -1.24 | Log10 Infection Rel EF-C [2, 10]: -1.2355 | Log10 Infection Rel EF-C [2, 11]: -1.2355 | Abs. Inf. [2]: 643.3 | Log10 Inf. rel. to EF-C [2, 13]: -1.2355 | Log10 Count Rate [3, 14]: 2.331 | Count Rate / kcps [3]: 214 kcps | Log10 Count Rate [3, 15]: 2.331 | Log10 Count Rate [3, 16]: 2.331

CKIKQIINM
TEM 2cat ([1]; Fig S10 panel D): 1 | Fibril ([1]; Fig S10 panel E): 1 | Fibril / Fibril Formation ([1]; TEM): 1 | Fibril [1, 4]: 1 | Fibril [1, 5]: 1 | TEM 2cat [1, 6]: 1 | Rel-EFC ([2]; 1.3 µM peptide): 0,5 | Log10 Infection Rel EFC ([2]; 1.3 µM peptide): -0,3 | Log Infectivity [2, 7]: -0.3035 | Log Infectivity [2, 8]: -0.3 | Log10 Infection Rel EF-C [2, 9]: -0.3 | Log10 Infection Rel EF-C [2, 10]: -0.3035 | Log10 Infection Rel EF-C [2, 11]: -0.3035 | Log10 of Rel to EFC (Feb2021) [2, 12]: -0.3 | Abs. Inf. [2]: 11280 | Log10 Inf. rel. to EF-C [2, 13]: -0.3035 | Log10 Count Rate [3, 14]: 3.957 | Count Rate / kcps [3]: 9058 kcps | Log10 Count Rate [3, 15]: 3.957 | Log10 Count Rate [3, 16]: 3.957

— paper PMC10447463, “Data-mining unveils structure–property–activity correlation of viral infectivity enhancing self-assembling peptides” (Nature Communications, 2023)
